Source: patent US20240277631A1, “SMALL MOLECULE DRUG (ELP-004) TO PREVENT BONE LESIONS CAUSED BY MULTIPLE MYELOMA” (West Virginia University Board of Governors on behalf of …, priority 2023, published 2024)
Read-outs that look alike come from different tables or passages of the source.

What was measured:
Murine BMSMCs [1] = assay: cytosolic Ca2+ levels and NFAT nuclear translocation during osteoclastogenesis; format: cell-based; conditions: 100 nM
[2] = system: osteoclasts differentiated from Murine BMSMCs; assay: matrix resorption (pit formation) on Osteo-Assay surface plates; format: cell-based; conditions: irrespective of conditions, days 7, 14, 21
Method: Murine BMSMCs were differentiated to form osteoclasts on Osteo-Assay surface plates. The sizes of pits formed by the resorptive activity of osteoclasts differentiated under the three conditions were analyzed at days 7, 14, and 21. Average pit sizes of 10-30 pits are shown.

Murine BMSMCs [3] = assay: RANKL-induced osteoclastogenesis (TRAP, multinucleation, marker mRNA); format: cell-based; conditions: RANKL (100 ng/ml)
Method: Murine BMSMCs were grown for up to 21 days in media supplemented with 50 ng/ml of m-CSF and 100 ng/mL RANKL. Each experiment was repeated a minimum of three times. Cells were fixed and stained for Tartrate Resistant Acid Phosphatase (TRAP) activity at days 1, 7, 14, and 21. The number of trap positive osteoclast-like cells (out of 100 cells) were counted for each time point, along with TRAP intensity, as shown in schematic A. In schematic B, the number of nuclei for each cell counted and the average number of nuclei per cell for 100 cells is shown at each time point.

Jurkat cells = format: cell-based; design: dose or concentration left out as unconfirmed; conditions: human
Method: wherein each X is chlorine, Y is a methyl group, and R is an ethyl group. N-MeDCPA is synthesized as described in U.S. Pat. No. 10,682,320, which is incorporated by reference herein. ELP-004 (N-MeDCPA) precludes metabolizing to two toxic metabolites, N—OH-dichloroaniline and 6-OH-dichloroaniline. In vitro assays for toxicity caused by ELP-004 using Jurkat cells show 50% toxicity at […] and <2% toxicity at […].
ELP-004 (i.e. N-MeDCPA) was specifically developed to preclude metabolizing to two toxic metabolites, N—OH-dichloroaniline and 6-OH-dichloroaniline. In vitro assays for toxicity caused by ELP-004 using Jurkat cells show 50% toxicity at […] and <2% toxicity at […].

rats = assay: 1x escalating oral toxicity in rats (IITRI); format: in vivo, rat
[4] = ability to cross the blood brain barrier
Source text: (§1) ELP-004 has been evaluated for its ability to cross the blood brain barrier. […] Other medications, such as but not limited to bupropion, are known to cause problems due to dopamine transporter binding.

dopamine transporter = dopamine transporter (Homo sapiens, UniProt Q01959); assay: dopamine transport
Source text: as §1

CYP enzymes = assay: induction of CYP enzymes; format: in vitro ADME
[5] = pharmacokinetics in mice, i.v., p.o., s.c.; format: in vivo, female C57B16 mice
Method: ELP-004 was reconstituted in 20% hydroxypropyl-beta-cyclodextrin (HPbCD) and administered to female C57B16 mice (3/timepoint/route of administration) in the fed state. Following i.v. (2 mg/kg) […] from whole blood at 5, 15, and 30 min and at 1, 2, 4, 7, and 24 h. ELP-004 concentration was measured by LC-MS/MS. The data was fit to a two-compartment model and slopes for the a and B elimination were determined.
Depicted in table 1 is pharmacokinetic data of ELP-004 administered via i.v, p.o., and s.c. ELP-004 was reconstituted in 20% hydroxypropyl-beta-cyclodextrin (HPbCD) and administered to female C57B16 mice (3/timepoint/route of administration) in the fed state. Following i.v. (2 mg/kg), s.c. (2 mg/kg), or p.o. (10 mg/kg) administration, plasma was isolated from whole blood at 5, 15, and 30 min and at 1, 2, 4, 7, and 24 h. Plasma from p.o. was not isolated at 5 min. ELP-004 concentration was measured by LC-MS/MS (see below). The limit of quantification was 10 ng/ml and samples below that were not used in the analyses. PK parameters were calculated using Phoenix WinNonlin (Certara, NJ, USA).

CYP2C9 = CYP2C9 (Homo sapiens, UniProt P11712); assay: stability with recombinant CYP2C9; format: in vitro ADME
Method: (§2) Depicted in table 2 is cytochrome P450 phenotyping and inhibition by ELP-004. The stability of ELP-004 was tested in the presence of recombinant enzymes CYP1A2, CYP2B6, CYP2C8, CYP2C9, CYP2C19, CYP2D6, and CYP3A4. ELP-004 (1 μM) was incubated with recombinant enzymes and NADPH. The amount of ELP-004 remaining at each timepoint was analyzed by LC-MS/MS. Incubations in control recombinant enzymes were also performed to assess non-enzymatic mediated stability. The intrinsic clearance of ELP-004 was determined. […] A decrease in the formation of the metabolite compared to vehicle control is used to calculate an IC50 value. Metabolite peak area ratio response as a percentage of vehicle control is plotted against the test compound concentration.

CYP2C19 = CYP2C19 (Homo sapiens, UniProt P33261); assay: stability with recombinant CYP2C19; format: in vitro ADME; conditions: recombinant CYP2C19, intrinsic clearance, read-out: Recombinant CYP CLINT
Method: as §2

CYP3A4 = CYP3A4 (Homo sapiens, UniProt P08684); assay: stability with recombinant CYP3A4; format: in vitro ADME; conditions: recombinant CYP3A4, intrinsic clearance, read-out: Recombinant CYP CLINT
Method: as §2

[6] = system: human myeloma cells (U266 cells); assay: bone loss in the animal model of multiple myeloma; format: in vivo; conditions: mice engrafted with human U266 myeloma cells, 60 mg/kg ELP-004 at 72h intervals (summary statement)
Method: Shown are cross-sections of distal femur micro-computer tomographic images from mice treated with 60 mg/kg ELP-004 or vehicle control at 72h intervals after the engraftment of human 2×10^6 myeloma cells (U266 cells). Confirmation of engraftment was verified by measuring serum human IgE levels.

osteoclasts = assay: development of osteoclasts (osteoclastogenesis); format: cell-based

Chain of CYP2C9 (P11712 whole entry): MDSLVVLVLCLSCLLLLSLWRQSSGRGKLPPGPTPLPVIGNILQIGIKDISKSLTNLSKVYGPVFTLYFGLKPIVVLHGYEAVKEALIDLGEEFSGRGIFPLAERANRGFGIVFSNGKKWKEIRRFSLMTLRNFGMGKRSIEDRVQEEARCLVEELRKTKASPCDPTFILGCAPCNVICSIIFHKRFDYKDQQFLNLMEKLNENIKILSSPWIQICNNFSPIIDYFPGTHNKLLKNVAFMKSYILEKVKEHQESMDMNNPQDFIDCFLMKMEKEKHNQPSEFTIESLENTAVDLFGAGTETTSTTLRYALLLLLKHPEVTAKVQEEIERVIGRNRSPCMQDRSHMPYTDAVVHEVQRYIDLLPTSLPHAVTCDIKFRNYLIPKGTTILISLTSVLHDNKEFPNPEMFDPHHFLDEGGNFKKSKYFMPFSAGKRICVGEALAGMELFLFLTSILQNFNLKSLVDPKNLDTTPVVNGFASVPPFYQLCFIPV
Chain of CYP2C19 (P33261 whole entry): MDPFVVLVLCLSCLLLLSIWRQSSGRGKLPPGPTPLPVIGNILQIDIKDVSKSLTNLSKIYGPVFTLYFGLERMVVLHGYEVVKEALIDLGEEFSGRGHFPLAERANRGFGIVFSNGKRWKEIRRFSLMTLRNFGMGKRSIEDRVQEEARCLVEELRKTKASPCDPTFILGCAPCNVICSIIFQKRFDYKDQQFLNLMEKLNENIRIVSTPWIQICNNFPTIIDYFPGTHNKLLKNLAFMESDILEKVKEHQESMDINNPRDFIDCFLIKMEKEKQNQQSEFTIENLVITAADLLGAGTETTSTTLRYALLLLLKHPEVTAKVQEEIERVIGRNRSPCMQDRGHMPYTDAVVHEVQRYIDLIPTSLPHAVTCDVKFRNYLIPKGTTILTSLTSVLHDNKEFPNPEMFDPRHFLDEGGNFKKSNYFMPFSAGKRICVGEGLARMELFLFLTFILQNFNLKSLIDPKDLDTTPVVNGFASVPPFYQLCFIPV
Chain of dopamine transporter (Q01959 whole entry): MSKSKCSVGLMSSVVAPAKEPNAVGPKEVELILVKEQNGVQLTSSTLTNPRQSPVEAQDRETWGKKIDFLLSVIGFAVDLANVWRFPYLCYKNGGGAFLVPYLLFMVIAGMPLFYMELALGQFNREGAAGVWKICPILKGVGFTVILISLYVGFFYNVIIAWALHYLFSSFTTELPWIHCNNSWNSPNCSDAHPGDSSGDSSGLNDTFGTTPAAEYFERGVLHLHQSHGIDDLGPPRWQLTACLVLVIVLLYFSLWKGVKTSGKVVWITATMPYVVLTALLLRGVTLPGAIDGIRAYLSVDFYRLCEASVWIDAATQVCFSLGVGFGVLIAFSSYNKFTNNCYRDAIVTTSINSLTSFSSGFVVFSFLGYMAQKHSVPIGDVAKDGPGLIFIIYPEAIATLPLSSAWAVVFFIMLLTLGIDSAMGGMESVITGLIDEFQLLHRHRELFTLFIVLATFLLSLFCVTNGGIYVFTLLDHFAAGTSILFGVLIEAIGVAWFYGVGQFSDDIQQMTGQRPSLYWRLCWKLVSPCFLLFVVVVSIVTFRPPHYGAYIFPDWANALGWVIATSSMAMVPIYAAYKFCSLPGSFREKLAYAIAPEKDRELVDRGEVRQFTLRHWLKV
Chain of CYP3A4 (P08684 whole entry): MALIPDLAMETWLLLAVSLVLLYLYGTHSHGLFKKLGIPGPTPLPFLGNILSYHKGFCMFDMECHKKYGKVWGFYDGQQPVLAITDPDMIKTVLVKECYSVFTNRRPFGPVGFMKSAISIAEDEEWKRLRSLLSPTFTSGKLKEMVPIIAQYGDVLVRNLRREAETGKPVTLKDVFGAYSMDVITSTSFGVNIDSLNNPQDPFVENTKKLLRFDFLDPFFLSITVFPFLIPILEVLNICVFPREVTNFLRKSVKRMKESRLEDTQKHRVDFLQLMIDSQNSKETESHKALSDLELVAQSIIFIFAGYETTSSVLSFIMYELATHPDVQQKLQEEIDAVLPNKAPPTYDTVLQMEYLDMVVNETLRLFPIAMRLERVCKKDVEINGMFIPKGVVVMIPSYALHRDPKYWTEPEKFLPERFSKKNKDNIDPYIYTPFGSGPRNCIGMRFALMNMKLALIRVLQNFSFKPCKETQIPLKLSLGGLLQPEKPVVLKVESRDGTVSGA

SMILES: CCC(=O)N(C)c1ccc(Cl)c(Cl)c1 [ELP-004, N-(3,4-dichlorophenyl)-N-methylpropanamide]
- NFAT nuclear translocation (Murine BMSMCs [1]; LTB4-induced changes): significantly inhibited
- cytosolic Ca2+ levels (Murine BMSMCs [1]; LTB4-induced changes): significantly inhibited
- NFAT nuclear translocation (Murine BMSMCs [1]; RANKL-induced osteoclastogenesis): had no effect
- NFAT nuclear translocation (Murine BMSMCs [1]; TNFα-induced changes): significantly inhibited
- cytosolic Ca2+ levels (Murine BMSMCs [1]; TNFα-induced changes): significantly inhibited
- matrix resorption activity of osteoclasts [2]: No resorption was observed
- TRAP activity (Murine BMSMCs [3]): no significant effect
- multinucleation (Murine BMSMCs [3]): no significant effect
- expression of osteoclast markers (Murine BMSMCs [3]; RT-PCR days 7 and 14): no significant effect
- toxicity (Jurkat cells; 200): < 2%
- toxicity (Jurkat cells; 800): 50%
- oral LD50 (rats): > 2.5 g/kg body weight
- crossing of the blood brain barrier [4]: does not cross the blood brain barrier
- problems with dopamine transport (dopamine transporter): does not cause problems with dopamine transport
- effect on induction of CYP enzymes (CYP enzymes): no deleterious effect
- time until essentially eliminated ([5]; administered orally): ≤ 4 h
- C0 ([5]; female, C57B16, mouse, plasma, iv, i.v. 2 mg/kg): 1220 ng/mL
- microsomal CLint at 1 μM (CYP2C9; human, recombinant CYP2C9, intrinsic clearance, read-out: Recombinant CYP CLINT): < 0.154 µL/min/mg
- metabolism by recombinant enzyme (CYP2C9; recombinant CYP2C9): not metabolized
- ELP-004 t1/2 (CYP2C9; recombinant CYP2C9, 1 μM, NADPH): >3 h
- microsomal CLint at 1 μM (CYP2C19): 0.279 µL/min/mg
- microsomal CLint at 1 μM (CYP3A4): 0.193 µL/min/mg
- development of bone lesions [6]: strongly suppressed
- development of osteoclasts (osteoclasts; general statement): inhibits the development of osteoclasts in a dose dependent manner
- osteoclast maturation (osteoclasts; summary statement): suppressed
